Results from ChEMBL document CHEMBL1156294, “Novel inhibitors of basal glucose transport as potential anticancer agents” (2010).

Key:
Type in all cases: functional
RKO = assay: Inhibition of basal glucose transport in human RKO cells assessed as inhibition of [3H]2-deoxyglucose uptake at 30 uM after 30 mins by scintillation counting
[1] = Cytotoxicity against human H1299 cells at 30 uM after 48 hrs by MTT assay relative to control; details: NCI-H1299, 48 h, read-out: GI
MCF7 = assay: Inhibition of basal glucose transport in human MCF7 cells assessed as inhibition of [3H]2-deoxyglucose uptake at 30 uM after 30 mins by scintillation counting
HeLa = assay: Inhibition of basal glucose transport in human HeLa cells assessed as inhibition of [3H]2-deoxyglucose uptake at 30 uM after 30 mins by scintillation counting
NCI-H1299 = assay: Inhibition of basal glucose transport in human H1299 cells assessed as inhibition of [3H]2-deoxyglucose uptake at 30 uM after 30 mins by scintillation counting relative to control

| Structure (SMILES) | inhibition at 30 µM (RKO) [%] | inhibition of growth at 30 µM [1] [%] | inhibition at 30 µM (MCF7) [%] | inhibition at 30 µM (HeLa) [%] | inhibition at 30 µM (NCI-H1299) [%] |
| --- | --- | --- | --- | --- | --- |
| COc1cccc(OC(=O)c2cc(O)c(O)c(O)c2)c1OC(=O)c1cc(O)c(O)c(O)c1 | 57.2 | 36 | 33 | 46.3 | 58.4 |
| O=C(Oc1ccc(Cl)cc1OC(=O)c1cc(O)c(O)c(O)c1)c1cc(O)c(O)c(O)c1 |  |  |  |  | 84.4 |
| O=C(Oc1ccccc1OC(=O)c1ccc(O)cc1)c1ccc(O)cc1 |  |  |  |  | 57.5 |
| O=C(Oc1cccc(OC(=O)c2cccc(O)c2)c1OC(=O)c1cccc(O)c1)c1cccc(O)c1 |  | 59.3 |  |  | 99.7 |
| COc1cccc(OC(=O)c2cccc(O)c2)c1OC(=O)c1cccc(O)c1 |  |  |  |  | 79 |
| O=C(Oc1ccc(Cl)cc1OC(=O)c1ccccc1O)c1ccccc1O |  | 26.6 |  |  | 51.6 |
| O=C(Oc1ccc(Cl)cc1OC(=O)c1cccc(O)c1)c1cccc(O)c1 |  | 44.5 |  |  | 93.1 |
| COc1cccc(OC(=O)c2cc(O)cc(O)c2)c1OC(=O)c1cc(O)cc(O)c1 |  |  |  |  | 69.4 |
| O=C(Oc1cccc(F)c1OC(=O)c1ccccc1O)c1ccccc1O |  |  |  |  | 51 |
| O=C(Oc1cccc(OC(=O)c2ccc(O)cc2)c1OC(=O)c1ccc(O)cc1)c1ccc(O)cc1 |  | 34.8 |  |  | 88.7 |
| O=C(Oc1cccc(OC(=O)c2ccc(O)c(O)c2)c1OC(=O)c1ccc(O)c(O)c1)c1ccc(O)c(O)c1 |  | 42.2 |  |  | 94.7 |
| COc1cccc(OC(=O)c2ccc(O)c(O)c2)c1OC(=O)c1ccc(O)c(O)c1 |  | 32.4 |  |  | 0 |
| O=C(Oc1cccc(F)c1OC(=O)c1cc(O)c(O)c(O)c1)c1cc(O)c(O)c(O)c1 |  |  |  |  | 81.1 |
| O=C(Oc1ccccc1OC(=O)c1cc(O)c(O)c(O)c1)c1cc(O)c(O)c(O)c1 |  |  |  |  | 32.1 |
| COc1cc(C(=O)Oc2cccc(OC)c2OC(=O)c2cc(OC)c(OC)c(OC)c2)cc(OC)c1OC |  | 22.2 |  |  | 33.3 |
| COc1cc(C(=O)Oc2ccc(Cl)cc2OC(=O)c2cc(OC)c(OC)c(OC)c2)cc(OC)c1OC |  | 20.6 |  |  | 1.7 |
| COc1cc(C(=O)Oc2cccc(F)c2OC(=O)c2cc(OC)c(OC)c(OC)c2)cc(OC)c1OC |  | 19.6 |  |  | 7.9 |

| Structure (SMILES) | inhibition at 30 µM (RKO) [%] | inhibition of growth at 30 µM [1] [%] | inhibition at 30 µM (MCF7) [%] | inhibition at 30 µM (HeLa) [%] | inhibition at 30 µM (NCI-H1299) [%] |
| --- | --- | --- | --- | --- | --- |
| O=C(Oc1cccc(F)c1OC(=O)c1ccc(O)cc1)c1ccc(O)cc1 |  | 35.9 |  |  | 92.6 |
| COc1cccc(C(=O)Oc2cccc(OC(=O)c3cccc(OC)c3)c2OC(=O)c2cccc(OC)c2)c1 |  |  |  |  | 66.2 |
| COc1cccc(C(=O)Oc2cccc(OC)c2OC(=O)c2cccc(OC)c2)c1 |  | 18.3 |  |  | 32.1 |
| O=C(Oc1cccc(OC(=O)c2cc(O)cc(O)c2)c1OC(=O)c1cc(O)cc(O)c1)c1cc(O)cc(O)c1 |  | 41 |  |  | 98.7 |
| O=C(Oc1ccc(Cl)cc1OC(=O)c1cc(O)cc(O)c1)c1cc(O)cc(O)c1 |  | 38.8 |  |  | 95.2 |
| O=C(Oc1cccc(F)c1OC(=O)c1cc(O)cc(O)c1)c1cc(O)cc(O)c1 |  | 35 |  |  | 94 |
| O=C(Oc1cccc(OC(=O)c2cc(O)c(O)c(O)c2)c1OC(=O)c1cc(O)c(O)c(O)c1)c1cc(O)c(O)c(O)c1 | 58.1 | 39.9 | 60.4 | 36 | 86.1 |
| COc1cc(C(=O)Oc2cccc(OC(=O)c3cc(OC)c(OC)c(OC)c3)c2OC(=O)c2cc(OC)c(OC)c(OC)c2)cc(OC)c1OC |  |  |  |  | 41.1 |
| O=C(Oc1ccc(Cl)cc1OC(=O)c1ccc(O)c(O)c1)c1ccc(O)c(O)c1 |  | 45.2 |  |  | 94.4 |
| O=C(Oc1cccc(F)c1OC(=O)c1ccc(O)c(O)c1)c1ccc(O)c(O)c1 |  | 41.5 |  |  | 88.7 |
| COc1cccc(OC)c1C(=O)Oc1cccc(OC(=O)c2c(OC)cccc2OC)c1OC(=O)c1c(OC)cccc1OC |  |  |  |  | 75.8 |
| COc1ccc(C(=O)Oc2cccc(OC(=O)c3ccc(OC)c(OC)c3)c2OC(=O)c2ccc(OC)c(OC)c2)cc1OC |  | 10 |  |  | 0 |
| O=C(Oc1cccc(OC(=O)c2ccccc2O)c1OC(=O)c1ccccc1O)c1ccccc1O |  |  |  |  | 74.7 |
| COc1cccc(OC(=O)c2ccccc2O)c1OC(=O)c1ccccc1O |  | 18 |  |  | 50.5 |
| COc1cccc(OC(=O)c2ccc(O)cc2)c1OC(=O)c1ccc(O)cc1 |  | 36.6 |  |  | 86.5 |
| O=C(Oc1ccc(Cl)cc1OC(=O)c1ccc(O)cc1)c1ccc(O)cc1 |  |  |  |  | 79 |
